This passage reports Kd results from paper PMC5515508, “Benzene Probes in Molecular Dynamics Simulations Reveal Novel Binding Sites for Ligand Design” (The Journal of Physical Chemistry Letters, 2016).

Bridge positions count the residues as written; N and C are the ends. Square brackets hold non-standard residues; d marks the D form. Peptide text beside a SMILES is read from it. R5 = C=CCCC[C@@](C)(N)C(=O)O

T1 sequence (Q00987 1-125): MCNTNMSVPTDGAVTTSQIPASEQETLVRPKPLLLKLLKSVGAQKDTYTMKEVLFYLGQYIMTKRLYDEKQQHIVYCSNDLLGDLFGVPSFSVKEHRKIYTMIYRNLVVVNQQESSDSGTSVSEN

The assay concerns the target T1, MDM2 (1-125) (Homo sapiens, UniProt Q00987).
T1 construct: cleaved MDM2 (1-125) was purified to ~90% purity; GST (N, cleaved yes); made in house; host or cells: Escherichia coli BL21(DE3)
The assay can be described thus: Competitive fluorescence polarization titration against FAM-labeled 12/1 peptide. In kind it is binding. Particulars: read-out: Dissociation constant (Kd). As to the method:
[P] is the protein concentration (MDM2), [L] is the labeled peptide concentration, r is the
Apparent Kd values were determined for a variety of molecules via competitive fluorescence […]
triplicate. Curve-fitting was carried out using Prism 4.0 (GraphPad).
What is called Kd is the equilibrium constant for the complex coming apart. With `CC(=O)N[C@H](C(=O)N[C@@H](CO)C(=O)N[C@@H](Cc1ccccc1)C(=O)N[C@]1(C)CCCC=CCCC[C@](C)(C(=O)N[C@@H](CC(C)C)C(=O)N[C@@H](CC(C)C)C(=O)N[C@@H](CO)C(=O)N[C@@H](CCC(=O)O)C(=O)N[C@@H](CC(N)=O)C(=O)N[C@@H](Cc2ccccc2)C(N)=O)NC(=O)[C@H](Cc2c[nH]c3ccccc23)NC(=O)[C@H](Cc2ccc(O)cc2)NC(=O)[C@H](CCC(=O)O)NC1=O)[C@@H](C)O` [YS-5] (Ac-TSF[R5]EYW[R5]LLSENF-NH2; staple 4-8), the Kd came out at 11.6 ± 0.9 nM.
Regarding `CC(=O)N[C@H](C(=O)N[C@@H](CO)C(=O)N[C@@H](Cc1ccccc1)C(=O)N[C@]1(C)CCCC=CCCC[C@](C)(C(=O)N[C@@H](CC(C)C)C(=O)N[C@@H](CC(C)C)C(=O)N[C@@H](CO)C(=O)N[C@@H](CCC(=O)O)C(=O)N[C@@H](CC(N)=O)C(=O)N[C@@H](Cc2ccc(O)cc2)C(N)=O)NC(=O)[C@H](Cc2c[nH]c3ccccc23)NC(=O)[C@H](Cc2ccc(O)cc2)NC(=O)[C@H](CCC(=O)O)NC1=O)[C@@H](C)O` [YS-6] (Ac-TSF[R5]EYW[R5]LLSENY-NH2; staple 4-8), the Kd was found to be 8.8 ± 0.6 nM.
To `CC(=O)N[C@H](C(=O)N[C@@H](CO)C(=O)N[C@@H](Cc1ccccc1)C(=O)N[C@]1(C)CCCC=CCCC[C@](C)(C(=O)N[C@@H](CC(C)C)C(=O)N[C@@H](CC(C)C)C(=O)N2CCC[C@H]2C(=O)N[C@@H](CCC(=O)O)C(=O)N[C@@H](CC(N)=O)C(=O)N[C@@H](Cc2ccccc2)C(N)=O)NC(=O)[C@H](Cc2c[nH]c3ccccc23)NC(=O)[C@H](Cc2ccc(O)cc2)NC(=O)[C@H](CCC(=O)O)NC1=O)[C@@H](C)O` [YS-1] (Ac-TSF[R5]EYW[R5]LLPENF-NH2; staple 4-8) belongs 9.9 ± 1.5 nM; to `CC(=O)N[C@H](C(=O)N[C@@H](CO)C(=O)N[C@@H](Cc1ccccc1)C(=O)N[C@]1(C)CCCC=CCCC[C@](C)(C(=O)N[C@@H](CC(C)C)C(=O)N[C@@H](CC(C)C)C(=O)N2CCC[C@H]2C(=O)N[C@@H](CCC(=O)O)C(=O)N[C@@H](CC(N)=O)C(N)=O)NC(=O)[C@H](Cc2c[nH]c3ccccc23)NC(=O)[C@H](Cc2ccc(O)cc2)NC(=O)[C@H](CCC(=O)O)NC1=O)[C@@H](C)O` [YS-3] (Ac-TSF[R5]EYW[R5]LLPEN-NH2; staple 4-8), 36.1 ± 2.9 nM.
To `CC(=O)N[C@H](C(=O)N[C@@H](CO)C(=O)N[C@@H](Cc1ccccc1)C(=O)N[C@]1(C)CCCC=CCCC[C@](C)(C(=O)N[C@@H](CC(C)C)C(=O)N[C@@H](CC(C)C)C(=O)N2CCC[C@H]2C(=O)N[C@@H](CCC(=O)O)C(=O)N[C@@H](CC(N)=O)C(=O)N[C@@H](C)C(N)=O)NC(=O)[C@H](Cc2c[nH]c3ccccc23)NC(=O)[C@H](Cc2ccc(O)cc2)NC(=O)[C@H](CCC(=O)O)NC1=O)[C@@H](C)O` [YS-4] (Ac-TSF[R5]EYW[R5]LLPENA-NH2; staple 4-8) belongs 27.7 ± 1.3 nM; to `CC(=O)N[C@H](C(=O)N[C@@H](CO)C(=O)N[C@@H](Cc1ccccc1)C(=O)N[C@]1(C)CCCC=CCCC[C@](C)(C(=O)N[C@@H](CC(C)C)C(=O)N[C@@H](CC(C)C)C(=O)N2CCC[C@H]2C(=O)N[C@@H](CCC(=O)O)C(=O)N[C@@H](CC(N)=O)C(=O)N[C@@H](Cc2ccc(O)cc2)C(N)=O)NC(=O)[C@H](Cc2c[nH]c3ccccc23)NC(=O)[C@H](Cc2ccc(O)cc2)NC(=O)[C@H](CCC(=O)O)NC1=O)[C@@H](C)O` [YS-2] (Ac-TSF[R5]EYW[R5]LLPENY-NH2; staple 4-8), 7.4 ± 1.5 nM.
